For 11 compounds, inhibition, IC50 and Inhibition results are on record in ChEMBL document CHEMBL1159165, “Novel, selective mechanism-based inhibitors of the herpes proteases” (Bioorg Med Chem Lett, 1996).

Assay [1] is described as follows: Compound was evaluated for inhibitory activity against elastase at dose of 100 uM.
Assay [2] concerns Human betaherpesvirus 5. The experiment in a line: Compound was evaluated for inhibitory activity against human cytomegalovirus (HCMV) protease. The format is functional.
Assay [3] addresses Serine protease 1 (Homo sapiens) (UniProt P07477). Briefly: Compound was evaluated for inhibitory activity against trypsin at dose of 100 uM.
A short description of assay [4]: Compound was evaluated for inhibitory activity against Chymotrypsinogen at dose of 22 uM.
In assay [5] the test system is Human betaherpesvirus 5. The experiment in a line: Compound was evaluated for inhibitory activity against human cytomegalovirus (HCMV) protease at dose of 10 uM. The format is functional.
Assay [6] can be described thus: Compound was evaluated for inhibitory activity against herpes simplex type 2 protease (HSV-2 pr) at dose of 10 uM. The settings on record: Human alphaherpesvirus 2.
Assay [7] is described as follows: Compound was evaluated for inhibitory activity against Chymotrypsinogen at dose of 100 uM.
Assay [8] has as its system Human betaherpesvirus 5. The experiment in a line: Compound was evaluated for inhibitory activity against human cytomegalovirus (HCMV) protease 10 uM. The format is functional.

Chain of Serine protease 1 (Homo sapiens) (P07477 whole entry): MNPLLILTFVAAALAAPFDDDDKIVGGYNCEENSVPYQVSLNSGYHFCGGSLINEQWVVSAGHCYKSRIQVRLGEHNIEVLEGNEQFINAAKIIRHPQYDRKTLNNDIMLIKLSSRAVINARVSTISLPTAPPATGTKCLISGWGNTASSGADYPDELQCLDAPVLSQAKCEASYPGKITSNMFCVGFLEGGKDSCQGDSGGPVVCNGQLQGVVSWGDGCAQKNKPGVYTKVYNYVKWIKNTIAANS

Regarding `O=C1OC(c2ccccc2)=N[C@@]12C[C@@H]2c1ccccc1`, the inhibition (commonly the drop in the measured response relative to a control, in per cent) in assay [1] was 42%; in assay [3] it was 63%; in assay [4] it was 92%. In addition, in assay [2], inhibition was half-maximal at 1800 nM (IC50).

With `CCOP(=O)(OCC)ON1C(=O)/C(=C/c2ccccc2)N=C1c1ccccc1`, in assay [5], the inhibition at 10 µM was determined as 20%. Besides, the inhibition in assay [6] was 5%.

`COc1ccc([C@H]2C[C@@]23N=C(c2ccccc2)OC3=O)cc1`: the inhibition in assay [1] worked out at 35%; in assay [3] it was 64%; in assay [7] it was 92%. Also, inhibition in assay [2] was half-maximal at 200 nM (IC50).

In the case of `O=C1OC(c2ccccc2)=NC12CC2`, the Inhibition (commonly the drop in the measured response relative to a control, in per cent) in assay [8] is given as 16%. This compound also had an inhibition in assay [6] of 71%.

For the compound `CC1=N[C@@]2(C[C@@H]2c2ccccc2)C(=O)O1`, the inhibition in assay [1] worked out at 82%; in assay [3], 88%.

With `O=C1OC(c2ccccc2)=N[C@@]12C[C@H]2c1ccccc1`, the inhibition at 10 µM in assay [5] was 85%. Moreover, in assay [6], the inhibition stood at 24%.

`CC(=O)ON1C(=O)/C(=C/c2ccccc2)N=C1c1ccccc1` yielded an inhibition at 10 µM in assay [5] of 35%. The inhibition in assay [6] came out at 14%.

With `CC(=O)Oc1ccc([C@H]2C[C@@]23N=C(c2ccccc2)OC3=O)cc1`, the IC50 (as a rule, the midpoint of a concentration-inhibition curve) in assay [2] is 1100 nM. In other words, the single-digit micromolar range.

Turning to `COc1ccc(S(=O)(=O)ON2C(=O)/C(=C/c3ccccc3)N=C2c2ccccc2)cc1`, the midpoint of inhibition in assay [2], the IC50, lay at 2300 nM. In assay [6], this compound returned an inhibition of 20%.

In turn, `CS(=O)(=O)ON1C(=O)/C(=C/c2ccccc2)N=C1c1ccccc1` gave an inhibition in assay [1] of 33%. In assay [2], this compound gave an IC50 of 400 nM.

Take `CC(=O)n1cc([C@H]2C[C@@]23N=C(c2ccccc2)OC3=O)c2ccccc21`: half-maximal inhibition in assay [2] (IC50) required 160 nM.
